Laboratory results as given in ChEMBL document CHEMBL2331207, “A novel fluorogenic substrate for dinuclear Zn(II)-containing metallo-β-lactamases” (Bioorg Med Chem Lett, 2013).

Tests used:
[1] = Activity at metallo-beta-lactamase L1 (unknown origin) by UV-vis spectrophotometry analysis
[2] = Activity at beta-lactamase type 2 (unknown origin) by UV-vis spectrophotometry analysis
[3] = Activity at metallo-beta-lactamase L1 (unknown origin) by fluorescence spectrum analysis
[4] = Activity at beta-lactamase type 2 (unknown origin) by fluorescence spectrum analysis

Km [1]: 13 µM | kcat [1]: 5 s⁻¹ | Km [2]: 18 µM | kcat [2]: 12 s⁻¹ | Km [3]: 18 µM | kcat [3]: 5 s⁻¹ | Km [4]: 11 µM | kcat [4]: 17 s⁻¹
Compound: O=C(O)C1=C(CSc2ccc(NC(=O)c3cc4ccccc4oc3=O)cc2)CS[C@@H]2[C@H](NC(=O)c3cc4ccccc4oc3=O)C(=O)N12
